Reference: ChEMBL document CHEMBL1201862, “PubChem BioAssay data set” (2004)
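Tested at 5 concentrations; 48 h exposure; 96-well plates; endpoints linearly interpolated, else capped at highest concentration. GI50 = concentration required for 50% inhibition of growth.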 The source made the active and inactive calls. Cut-off read from the data, not from the text of the source: active = GI50 up to about 1.1 µM and inactive = higher.

What was measured:
Test in all cases: NCI anticancer screen, dose series, 48 h
SK-MEL-5 = tested on: SK-MEL-5
SK-MEL-2 = tested on: SK-MEL-2
RXF 393 = tested on: RXF 393
CAKI-1 = tested on: CAKI-1
KM12 = tested on: KM12
PC-3 = tested on: PC-3
T47D = tested on: T47D
U-251 = tested on: U-251
MOLT-4 = tested on: MOLT-4
MCF7 = tested on: MCF7
EKVX = tested on: EKVX
A549 = tested on: A549
OVCAR-8 = tested on: OVCAR-8
MDA-MB-231 = tested on: MDA-MB-231
SNB-19 = tested on: SNB-19
SK-OV-3 = tested on: SK-OV-3
SNB-75 = tested on: SNB-75
MDA-MB-435 = tested on: MDA-MB-435
NCI-H460 = tested on: NCI-H460
HOP-92 = tested on: HOP-92

Measured: GI50

COc1ccc(/C=C2\N=C(SC)NC2=O)cc1
inactive: SK-MEL-5 53.6 µM | SK-MEL-2 > 100 µM | RXF 393 67.3 µM | CAKI-1 56 µM | KM12 54.6 µM | PC-3 67.1 µM | T47D 27.8 µM | U-251 90.6 µM | MOLT-4 46.5 µM | MCF7 70.8 µM | EKVX 30.4 µM | A549 > 100 µM | OVCAR-8 > 100 µM | MDA-MB-231 59.6 µM | SNB-19 38.5 µM | SK-OV-3 > 100 µM | SNB-75 27.2 µM | MDA-MB-435 91.8 µM

Cc1cc(OCC(=O)O)c(Cl)cc1Cl
inactive: SK-MEL-5 > 100 µM | SK-MEL-2 > 100 µM | RXF 393 > 100 µM | NCI-H460 > 100 µM | CAKI-1 > 100 µM | HOP-92 > 100 µM | KM12 > 100 µM | PC-3 > 100 µM | T47D > 100 µM | U-251 > 100 µM | MOLT-4 > 100 µM | EKVX > 100 µM | A549 > 100 µM | OVCAR-8 > 100 µM | MDA-MB-231 > 100 µM | SNB-19 > 100 µM | MDA-MB-435 > 100 µM

COc1cc(C2SCC(=O)N2c2ccc(Oc3ccc(Cl)cc3)c(Cl)c2)cc(OC)c1OC (stereo not drawn)
inactive: SK-MEL-5 17.9 µM | SK-MEL-2 17.1 µM | NCI-H460 43.4 µM | CAKI-1 16.9 µM | KM12 19.8 µM | PC-3 15.4 µM | T47D 10.3 µM | U-251 39.5 µM | MOLT-4 8.04 µM | MCF7 36.3 µM | EKVX 23.6 µM | A549 21.9 µM | OVCAR-8 17 µM | MDA-MB-231 18.7 µM | SNB-19 34.2 µM | SK-OV-3 17.1 µM | SNB-75 17.2 µM | MDA-MB-435 16 µM

O=C(Cn1c2c(c3ccccc31)CCCC2)N1CCOCC1
inactive: SK-MEL-5 > 100 µM | SK-MEL-2 > 100 µM | NCI-H460 > 100 µM | CAKI-1 > 100 µM | HOP-92 > 100 µM | PC-3 > 100 µM | MOLT-4 > 100 µM | MCF7 > 100 µM | EKVX > 100 µM | A549 > 100 µM | OVCAR-8 > 100 µM | SNB-19 > 100 µM | SK-OV-3 > 100 µM | MDA-MB-435 > 100 µM

O=C(O)CC(NC(=O)/C(=C/c1ccccc1O)NC(=O)c1ccccc1)C(=O)O (stereo not drawn)
inactive: SK-MEL-5 > 100 µM | SK-MEL-2 > 100 µM | CAKI-1 34.7 µM | KM12 > 100 µM | PC-3 86.1 µM | T47D 79.4 µM | U-251 54.7 µM | MOLT-4 52.4 µM | MCF7 34 µM | EKVX 83.9 µM | A549 > 100 µM | OVCAR-8 > 100 µM | MDA-MB-231 > 100 µM | SK-OV-3 > 100 µM | SNB-75 88.1 µM | MDA-MB-435 85.9 µM

CN(C)CCCN1CCc2c([nH]c3ccccc23)C1c1cccnc1 (stereo not drawn)
inactive: SK-MEL-5 > 100 µM | SK-MEL-2 > 100 µM | RXF 393 > 100 µM | NCI-H460 > 100 µM | CAKI-1 > 100 µM | HOP-92 33.8 µM | KM12 > 100 µM | U-251 > 100 µM | MOLT-4 > 100 µM | EKVX > 100 µM | A549 > 100 µM | OVCAR-8 > 100 µM | SNB-19 > 100 µM | SK-OV-3 > 100 µM | SNB-75 > 100 µM

Cn1c(=O)c2c3ccccc3n(C)c2n(C)c1=O
inactive: SK-MEL-5 > 100 µM | SK-MEL-2 > 100 µM | RXF 393 > 100 µM | CAKI-1 > 100 µM | HOP-92 > 100 µM | KM12 > 100 µM | T47D > 100 µM | U-251 > 100 µM | MOLT-4 > 100 µM | MCF7 > 100 µM | EKVX > 100 µM | A549 > 100 µM | OVCAR-8 > 100 µM | MDA-MB-231 > 100 µM | SNB-19 > 100 µM | SK-OV-3 22.3 µM | SNB-75 1.26 µM | MDA-MB-435 > 100 µM

O=C(OCC1CC(C2(O)CCCCC2)C(=O)O1)c1ccccc1 (stereo not drawn)
inactive: SK-MEL-5 > 100 µM | SK-MEL-2 > 100 µM | RXF 393 > 100 µM | NCI-H460 71.8 µM | CAKI-1 > 100 µM | HOP-92 5.5 µM | KM12 > 100 µM | PC-3 > 100 µM | U-251 > 100 µM | MOLT-4 > 100 µM | MCF7 > 100 µM | EKVX > 100 µM | A549 > 100 µM | OVCAR-8 > 100 µM | MDA-MB-231 > 100 µM | SNB-19 > 100 µM | SK-OV-3 > 100 µM | SNB-75 > 100 µM | MDA-MB-435 > 100 µM

CC(C)OCN/C(N)=N\C#N
inactive: SK-MEL-5 > 100 µM | SK-MEL-2 > 100 µM | RXF 393 46.1 µM | NCI-H460 > 100 µM | CAKI-1 > 100 µM | HOP-92 > 100 µM | KM12 > 100 µM | U-251 > 100 µM | MOLT-4 > 100 µM | EKVX > 100 µM | A549 > 100 µM | OVCAR-8 > 100 µM | SNB-19 > 100 µM | SK-OV-3 > 100 µM | SNB-75 > 100 µM

NS(=O)(=O)c1ccccc1C(=O)N/N=C(\c1nc2ccc([N+](=O)[O-])cc2[nH]c1=O)C(O)c1ccc([N+](=O)[O-])cc1 (stereo not drawn)
inactive: SK-MEL-5 44.4 µM | SK-MEL-2 > 100 µM | RXF 393 > 100 µM | NCI-H460 > 100 µM | CAKI-1 > 100 µM | HOP-92 > 100 µM | KM12 66.2 µM | U-251 > 100 µM | MOLT-4 > 100 µM | EKVX > 100 µM | A549 > 100 µM | OVCAR-8 > 100 µM | SNB-19 > 100 µM | SK-OV-3 > 100 µM | SNB-75 > 100 µM

COC(=O)/C=C/c1c(CC=C(C)C)ncn1C
inactive: SK-MEL-5 22.1 µM | SK-MEL-2 19.6 µM | RXF 393 22.5 µM | NCI-H460 40.2 µM | CAKI-1 > 68.1 µM | HOP-92 78.7 µM | KM12 11 µM | U-251 19.1 µM | MOLT-4 5.31 µM | EKVX > 57.1 µM | A549 70.3 µM | OVCAR-8 40.2 µM | SNB-19 26.1 µM | SK-OV-3 47.9 µM | SNB-75 11.1 µM

CC(C)=C/C(CC(O)(C(F)(F)F)C(F)(F)F)=N\O
inactive: SK-MEL-5 > 100 µM | RXF 393 > 100 µM | NCI-H460 > 100 µM | HOP-92 > 100 µM | KM12 > 100 µM | T47D > 100 µM | U-251 > 100 µM | MOLT-4 > 100 µM | MCF7 > 100 µM | EKVX > 100 µM | A549 > 100 µM | OVCAR-8 > 100 µM | MDA-MB-231 > 100 µM | SNB-19 > 100 µM | SK-OV-3 > 100 µM | SNB-75 > 100 µM | MDA-MB-435 > 100 µM

COC(=O)c1nc(NC#N)nc(O)c1C
inactive: SK-MEL-5 > 100 µM | SK-MEL-2 > 100 µM | RXF 393 > 100 µM | NCI-H460 > 100 µM | CAKI-1 > 77.3 µM | HOP-92 50.2 µM | KM12 > 100 µM | U-251 > 85.7 µM | MOLT-4 > 100 µM | EKVX > 100 µM | A549 > 89.5 µM | OVCAR-8 > 100 µM | SNB-19 > 67.9 µM | SK-OV-3 > 100 µM | SNB-75 > 53.3 µM

C=C1CN2CC(=C)CN(C1)CS(=O)(=O)N1CC(=C)CN(CC(=C)C1)S(=O)(=O)N1CC(=C)CN(CC(=C)C1)S(=O)(=O)C2
inactive: SK-MEL-5 19.4 µM | SK-MEL-2 38.4 µM | RXF 393 19.5 µM | NCI-H460 > 100 µM | CAKI-1 > 100 µM | HOP-92 31.3 µM | KM12 40.4 µM | PC-3 17.7 µM | U-251 32.7 µM | MOLT-4 67.1 µM | MCF7 50.1 µM | EKVX 39.1 µM | A549 50.8 µM | OVCAR-8 40 µM | MDA-MB-231 24.2 µM | SNB-19 40.7 µM | MDA-MB-435 43.9 µM

O=c1[nH]nc(Cc2ccccc2)n1/N=C/c1ccccc1O
inactive: SK-MEL-5 > 100 µM | SK-MEL-2 > 100 µM | RXF 393 23.4 µM | NCI-H460 > 100 µM | CAKI-1 > 100 µM | HOP-92 53.7 µM | KM12 > 100 µM | T47D > 100 µM | U-251 45 µM | MOLT-4 > 100 µM | MCF7 > 100 µM | EKVX > 100 µM | A549 > 100 µM | OVCAR-8 40.1 µM | MDA-MB-231 63.2 µM | SNB-19 79.8 µM | SK-OV-3 > 100 µM | MDA-MB-435 > 100 µM

C[n+]1c(-c2ccc(/C=N/N=C/c3ccc(-c4cn5ccccc5[n+]4C)cc3)cc2)cn2ccccc21
inactive: SK-MEL-5 > 100 µM | NCI-H460 > 100 µM | KM12 > 100 µM | PC-3 > 100 µM | T47D > 100 µM | U-251 > 100 µM | MOLT-4 > 100 µM | MCF7 > 100 µM | EKVX > 100 µM | A549 > 100 µM | OVCAR-8 > 100 µM | MDA-MB-231 > 100 µM | SNB-19 > 100 µM | SK-OV-3 > 100 µM | SNB-75 > 100 µM | MDA-MB-435 > 100 µM
